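96-well plates; 48 h exposure; 5 concentrations. Endpoints by linear interpolation between flanking doses. Not reached: highest tested concentration assigned. Abbreviation: GI50, concentration required for 50% inhibition of growth.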 The source made the active and inactive calls. No stated cut-off is given here; in the data, active = GI50 up to about 1.1 µM and inactive = higher.
Key:
Test in all cases: NCI-60 cell line screen, 48 h
MDA-MB-435 = tested on: MDA-MB-435
HCT-116 = tested on: HCT-116
OVCAR-8 = tested on: OVCAR-8
Hs-578T = tested on: Hs-578T
OVCAR-3 = tested on: OVCAR-3
HT-29 = tested on: HT-29
SK-MEL-2 = tested on: SK-MEL-2
SK-MEL-5 = tested on: SK-MEL-5
SNB-19 = tested on: SNB-19
CCRF-CEM = tested on: CCRF-CEM
SK-MEL-28 = tested on: SK-MEL-28
SN12C = tested on: SN12C
KM12 = tested on: KM12
BT-549 = tested on: BT-549
NCI-H226 = tested on: NCI-H226
UACC-257 = tested on: UACC-257
NCI/ADR-RES = tested on: NCI/ADR-RES
T47D = tested on: T47D
MCF7 = tested on: MCF7
SF-539 = tested on: SF-539

Row | SMILES | GI50 (MDA-MB-435) | GI50 (HCT-116) | GI50 (OVCAR-8) | GI50 (Hs-578T) | GI50 (OVCAR-3) | GI50 (HT-29) | GI50 (SK-MEL-2) | GI50 (SK-MEL-5) | GI50 (SNB-19) | GI50 (CCRF-CEM) | GI50 (SK-MEL-28) | GI50 (SN12C) | GI50 (KM12) | GI50 (BT-549) | GI50 (NCI-H226) | GI50 (UACC-257) | GI50 (NCI/ADR-RES) | GI50 (T47D) | GI50 (MCF7) | GI50 (SF-539)
1 | Oc1ccc(Cl)cc1/N=N\c1c(O)ccc2ccccc12 | > 100 µM (inactive) | > 100 µM (inactive) | > 100 µM (inactive) | > 100 µM (inactive) | > 100 µM (inactive) | > 100 µM (inactive) | > 100 µM (inactive) | 92.7 µM (inactive) | > 100 µM (inactive) | > 100 µM (inactive) | > 100 µM (inactive) | > 100 µM (inactive) | > 100 µM (inactive) | > 100 µM (inactive) | > 100 µM (inactive) | > 100 µM (inactive) | > 100 µM (inactive) | – | – | –
2 | CC1C(c2ccc3c(c2)OCO3)c2cc3c(cc2OC1N1CCCCC1)OCO3 (configuration not stated) | 25.2 µM (inactive) | 42.6 µM (inactive) | > 100 µM (inactive) | 35.4 µM (inactive) | 41.6 µM (inactive) | 57.5 µM (inactive) | 33.6 µM (inactive) | 54.6 µM (inactive) | 48.9 µM (inactive) | 35.2 µM (inactive) | 54.8 µM (inactive) | > 100 µM (inactive) | 41.9 µM (inactive) | – | – | > 100 µM (inactive) | 42 µM (inactive) | 30.7 µM (inactive) | 65.9 µM (inactive) | 50.8 µM (inactive)
3 | CN(C)CCCN1c2ccc([N+](=O)[O-])cc2CCc2cccc([N+](=O)[O-])c21 | 14.6 µM (inactive) | 14.3 µM (inactive) | 17 µM (inactive) | 14.4 µM (inactive) | 15.4 µM (inactive) | 13.7 µM (inactive) | 18.7 µM (inactive) | 15.2 µM (inactive) | 17.5 µM (inactive) | 16.7 µM (inactive) | 14.8 µM (inactive) | 15.1 µM (inactive) | 15.6 µM (inactive) | – | 13.3 µM (inactive) | 14.3 µM (inactive) | 13.3 µM (inactive) | 17.4 µM (inactive) | – | 15.2 µM (inactive)
4 | c1cc2nnc1SCCSCCSc1ccc(nn1)SCCSCCS2 | > 100 µM (inactive) | > 100 µM (inactive) | > 100 µM (inactive) | > 100 µM (inactive) | > 100 µM (inactive) | > 100 µM (inactive) | > 100 µM (inactive) | > 100 µM (inactive) | > 100 µM (inactive) | > 100 µM (inactive) | > 100 µM (inactive) | > 100 µM (inactive) | > 100 µM (inactive) | – | > 100 µM (inactive) | > 100 µM (inactive) | > 100 µM (inactive) | > 100 µM (inactive) | > 100 µM (inactive) | 25.4 µM (inactive)
5 | N[C@H]1CCN(c2c(F)cc3c(=O)c(C(=O)O)cn4c3c2Oc2c-4ccc3c2ccc2ccccc23)C1 | 1.05 µM (active) | 0.492 µM (active) | 0.664 µM (active) | 0.731 µM (active) | 13.1 µM (inactive) | 0.117 µM (active) | 9.77 µM (inactive) | 0.776 µM (active) | 1.33 µM (inactive) | – | 2.52 µM (inactive) | 0.774 µM (active) | 1 µM (active) | – | 4.02 µM (inactive) | 0.288 µM (active) | 2.8 µM (inactive) | 2.65 µM (inactive) | 0.817 µM (active) | 1.25 µM (inactive)
6 | COC(=O)c1sc2ncc3c(c2c1N)CC(C)CC3 (configuration not stated) | > 100 µM (inactive) | > 100 µM (inactive) | – | – | > 100 µM (inactive) | 67 µM (inactive) | > 100 µM (inactive) | > 100 µM (inactive) | > 100 µM (inactive) | > 100 µM (inactive) | > 100 µM (inactive) | > 100 µM (inactive) | > 100 µM (inactive) | > 100 µM (inactive) | > 100 µM (inactive) | > 100 µM (inactive) | > 100 µM (inactive) | > 100 µM (inactive) | > 100 µM (inactive) | > 100 µM (inactive)
7 | CC(C)(C)OC(=O)NNC(=O)C1Cc2ccccc2OC1=O (configuration not stated) | > 100 µM (inactive) | > 100 µM (inactive) | > 100 µM (inactive) | > 100 µM (inactive) | > 100 µM (inactive) | > 100 µM (inactive) | > 100 µM (inactive) | > 100 µM (inactive) | > 100 µM (inactive) | – | > 100 µM (inactive) | > 100 µM (inactive) | > 100 µM (inactive) | > 100 µM (inactive) | > 100 µM (inactive) | > 100 µM (inactive) | > 100 µM (inactive) | – | – | > 100 µM (inactive)
8 | Nc1c(C(=O)c2ccc(Cl)cc2)[nH]c(NCc2ccccc2)c1C(=S)Nc1ccccc1 | 1.74 µM (inactive) | 1.83 µM (inactive) | 1.77 µM (inactive) | – | 6.65 µM (inactive) | 1.94 µM (inactive) | 1.91 µM (inactive) | – | 4.07 µM (inactive) | 2.44 µM (inactive) | 1.77 µM (inactive) | 4.89 µM (inactive) | 1.67 µM (inactive) | 2.49 µM (inactive) | 7.91 µM (inactive) | 1.67 µM (inactive) | 7.83 µM (inactive) | 3.76 µM (inactive) | 1.58 µM (inactive) | 4.62 µM (inactive)
9 | COc1ccc(NC(C)=O)cc1N1C(=O)/C(=C\c2cccc(Oc3ccccc3)c2)S(=O)(=O)C1c1ccccc1 (configuration not stated) | 33.8 µM (inactive) | 17.4 µM (inactive) | 35.1 µM (inactive) | – | 28.5 µM (inactive) | 18.7 µM (inactive) | 69.5 µM (inactive) | 35.3 µM (inactive) | 46.1 µM (inactive) | 16.1 µM (inactive) | 43.1 µM (inactive) | 24.2 µM (inactive) | 59.2 µM (inactive) | 53.3 µM (inactive) | > 100 µM (inactive) | 49.3 µM (inactive) | 27.9 µM (inactive) | 18.5 µM (inactive) | 25.9 µM (inactive) | 20.7 µM (inactive)
10 | COc1ccc(N(CN2C(=O)CCC2OC)C(C)=O)cc1 (configuration not stated) | > 100 µM (inactive) | > 100 µM (inactive) | > 100 µM (inactive) | > 100 µM (inactive) | > 100 µM (inactive) | > 100 µM (inactive) | > 100 µM (inactive) | > 100 µM (inactive) | > 100 µM (inactive) | > 100 µM (inactive) | > 100 µM (inactive) | > 100 µM (inactive) | > 100 µM (inactive) | – | > 100 µM (inactive) | > 100 µM (inactive) | > 100 µM (inactive) | > 100 µM (inactive) | > 100 µM (inactive) | > 100 µM (inactive)
11 | COC(=O)C1(C(=O)OC)N=C(C)OC1/C=C/c1ccccc1 (configuration not stated) | > 100 µM (inactive) | > 100 µM (inactive) | > 100 µM (inactive) | – | > 100 µM (inactive) | – | > 100 µM (inactive) | > 100 µM (inactive) | > 100 µM (inactive) | 75.3 µM (inactive) | > 100 µM (inactive) | > 100 µM (inactive) | > 100 µM (inactive) | > 100 µM (inactive) | > 100 µM (inactive) | > 100 µM (inactive) | > 100 µM (inactive) | > 100 µM (inactive) | > 100 µM (inactive) | –
12 | O=C(O)CCCCC1CCSS1 (stereo not drawn) [LIPOIC ACID, ALPHA] | > 100 µM (inactive) | > 100 µM (inactive) | > 100 µM (inactive) | > 100 µM (inactive) | > 100 µM (inactive) | > 100 µM (inactive) | > 100 µM (inactive) | > 100 µM (inactive) | > 100 µM (inactive) | > 100 µM (inactive) | > 100 µM (inactive) | > 10 µM (inactive) | > 100 µM (inactive) | – | > 100 µM (inactive) | > 100 µM (inactive) | > 100 µM (inactive) | > 100 µM (inactive) | > 100 µM (inactive) | > 100 µM (inactive)
13 | Oc1ccccc1/C=N/N1C(=S)N(c2ccccc2)C(=N\c2ccccc2)/C1=N/c1ccccc1 | 22.3 µM (inactive) | 11.6 µM (inactive) | 4.97 µM (inactive) | 4.53 µM (inactive) | 15 µM (inactive) | 3.63 µM (inactive) | 17.7 µM (inactive) | 18.2 µM (inactive) | 6.47 µM (inactive) | > 37 µM (inactive) | 26.8 µM (inactive) | 12.4 µM (inactive) | 46.3 µM (inactive) | – | 11.6 µM (inactive) | 25.1 µM (inactive) | 13.6 µM (inactive) | 15.9 µM (inactive) | > 100 µM (inactive) | 4.81 µM (inactive)
14 | O=C1NCC(NC(=O)C(F)(F)F)c2c(Br)sc(Br)c21 (configuration not stated) | > 100 µM (inactive) | > 100 µM (inactive) | > 100 µM (inactive) | – | > 100 µM (inactive) | > 100 µM (inactive) | > 100 µM (inactive) | > 100 µM (inactive) | > 100 µM (inactive) | > 100 µM (inactive) | > 100 µM (inactive) | > 100 µM (inactive) | > 100 µM (inactive) | > 100 µM (inactive) | > 100 µM (inactive) | > 100 µM (inactive) | > 100 µM (inactive) | > 100 µM (inactive) | > 100 µM (inactive) | > 100 µM (inactive)
15 | CSCCCN(CCCSC)CCCSC | 55.6 µM (inactive) | > 100 µM (inactive) | > 100 µM (inactive) | – | > 100 µM (inactive) | > 100 µM (inactive) | – | > 100 µM (inactive) | > 100 µM (inactive) | 35.5 µM (inactive) | > 100 µM (inactive) | > 100 µM (inactive) | > 100 µM (inactive) | > 100 µM (inactive) | – | > 100 µM (inactive) | > 100 µM (inactive) | > 100 µM (inactive) | > 100 µM (inactive) | > 100 µM (inactive)
